{"source": "patent US20070037887A1", "about": "“Blockade of mtor to prevent a hormonal adaptive response” (University of Virginia Patent Foundation, priority 2003, published 2007)", "key": {"Solubility in buffer": {"experiment": "Solubility in buffer", "format": "physicochemical"}, "LTED cells [1]": {"tested_on": "LTED cells", "experiment": "Growth of LTED cells (cell number)", "format": "cell-based, human", "method": "FIG. 3 represents the effect of FTS on the growth of MCF-7, LTED, and MCF-10A cells. Sixty thousand cells were plated into each well of 6-well plates. Two days later, the cells were treated in triplicate for five days with FTS at indicated concentrations. The results (mean±S.E.) are expressed as percentage of the vehicle control.\nFIG. 4 represents the effect of FTS on E2 stimulated growth of MCF-7 and LTED cells. Thirty thousand cells were plated into each well of 6-well plates. Two days later, the cells were re-fed with IMEM containing 5% DCC-FBS. After another two days, cells were treated in triplicate with estradiol (10^−10 M) plus various concentrations of FTS for five days. In LTED cells, fulvestrant (10^−9 M) was included in all wells to block the effect of residual estrogen in the culture. The results (mean±S.E.) are expressed as percentage of cell number from the wells containing E2.\nThe effect of FTS on growth of breast cancer cells was examined in two different cell lines: MCF-7 wild type cells which represent a model for untreated breast cancer and LTED cells as a model of cells adapting to endocrine treatment. Cells were grown in their culture media and treated with FTS for five days. […] The effect of FTS on E2-stimulated growth of MCF-7 and LTED cells was the examined. […]"}, "[2]": {"tested_on": "ERK1/2 MAP kinase, Akt, p70 S6 kinase, PHAS-I phosphorylation in MCF-7 cells", "experiment": "Western analysis of serum-stimulated kinase phosphorylation, MCF-7 cells", "format": "cell-based, human", "conditions": "FTS 24 h", "method": "(§1) FIGS. 7A-7D represent data showing the effect of FTS on serum-stimulated activation of MAP kinase, PI3 kinase, and mTOR. Subconfluent MCF-7 and LTED cells grown in 60 mm dishes were treated with FTS in their culture media for 24 h. Cells were then harvested and cell lysate prepared. Phosphorylation of ERK1/2 MAP kinase (FIG. 7A), Akt at Ser^473 (FIG. 7B), p70 S6 kinase at Thr^389 (FIG. 7C), and PHAS-I at Ser^65 (FIG. 7D) was detected by Western analysis using specific antibodies and quantitated by densitometry scanning.\n(§2) The levels of phosphorylated ERK1/2 MAPK, Akt (Ser^473), p70S6K (Thr^389) and PHAS-1 (Ser^65) were consistently elevated in LTED cells compared to those in wild type MCF-7 cells as indicated by Western blot analysis using specific antibodies against phosphorylated ERK 1/2 (FIG. 7A), Akt (FIG. 7B), p70S6 kinase (FIG. 7C) and PHAS-1 (FIG. 7D). […] (FIGS. 7C & 7D)."}, "[3]": {"tested_on": "ERK1/2 MAP kinase, Akt, p70 S6 kinase, PHAS-I phosphorylation in LTED cells", "experiment": "Western analysis of serum-stimulated kinase phosphorylation, LTED cells", "format": "cell-based, human", "method": "as §1\nFIGS. 10A-10D represent data showing the effect of FTS on serum- and growth factor-induced phosphorylation of p70 S6 kinase at Thr^229 in LTED cells (FIG. 10A). Comparison of FTS and LY 294002 (LY) on Thr^229 phosphorylation of p70 S6K induced by EGF (FIG. 10B; by same treatment as described in FIG. 8). Comparison of FTS and LY 294002 on […] phosphorylation of p70 S6K induced by IGF-1 (FIG. 10C; by same treatment as described in FIG. 8). FIG. 10D is graph displaying the time course of FTS (100 μM) effects on Thr^389 and Thr^229 phosphorylation of p70 S6K in LTED cells cultured in serum containing IMEM.\nas §2\nIn contrast, LY294002 blocked growth factor induced Thr^229 phosphorylation in a dose- and time-dependent manner (FIGS. 10A and 10B). […] Therefore, FTS's effect on MTOR activity was investigated."}, "LTED cells [4]": {"tested_on": "LTED cells", "experiment": "Apoptosis ELISA (Cell Death Detection Kit), LTED cells", "format": "cell-based, human", "conditions": "three day treatment", "method": "FIG. 6 is a bar graph portraying data representing the induction of apoptosis in MCF-7 and LTED cells by FTS. Eighty thousand MCF-7 and LTED cells were plated into each well of 12-well plates in their culture media. Two days later, the cells were treated with FTS for 3 days. Apoptosis was measured using a Cell Death Detection Kit from Roche Molecular Biochemicals. Parallel plates subjected to identical treatment were prepared for cell counting. The results were expressed as the values of optical density at 405 nm per 10,000 cells.\nApplicants postulated that these cells might also have become sensitized to the pro-apoptotic effects of estradiol. To test this hypothesis, an ELISA assay was used to assess apoptosis and to compare the effects of estradiol in wild-type and LTED cells. […] The presence of apoptosis in LTED cells was confirmed by the measurement of annexin V and the use of time-lapse microscopy.\nThe effect of a three day treatment with FTS on apoptosis in MCF-7 and LTED cells was examined using the ELISA assay for quantitation. […] LTED cells were much more sensitive than MCF-7 cells to the apoptotic effects of FTS."}, "[5]": {"conditions": "FTS 100 μM, serum containing medium"}}, "data": [{"molecule": "CC(C)=CCC/C(C)=C/CC/C(C)=C/CSc1ccccc1C(=O)O", "note": "[FTS, farnesylthiosalicylic acid]", "values": [{"measurement": "solubility in buffer", "setting": "Solubility in buffer", "value": "only limited solubility"}, {"measurement": "E2-stimulated growth", "setting": "LTED cells [1]; E2 10^−10 M in the presence of fulvestrant 10^−9 M", "value": "inhibited"}, {"measurement": "basal growth", "setting": "LTED cells [1]; culture media, five days", "value": "dose-dependently inhibited"}, {"measurement": "fall of phosphorylated ERK1/2 and 4E BP 1", "setting": "[2]", "value": "approximately 50%"}, {"measurement": "p70 S 6 kinase and phospho-AKT", "setting": "[2]", "value": "inconsistent decrements"}, {"measurement": "time at which inhibition of Thr389 phosphorylation maximized", "setting": "[3]; [5]", "value": 24, "unit": "h"}, {"measurement": "time at which inhibition of Thr389 phosphorylation occurred", "setting": "[3]; [5]", "value": 2, "unit": "h"}, {"measurement": "Thr229 phosphorylation of p70 S6K", "setting": "[3]; FTS 100 μM, serum containing medium, time course", "value": "only slightly reduced"}, {"measurement": "phosphorylation of ERK1/2 MAPK, Akt (Ser473), p70S6K (Thr389) and PHAS-1 (Ser65)", "setting": "[3]; FTS 24 h in culture media", "value": "dose-dependently inhibited"}, {"measurement": "induction of apoptosis", "setting": "LTED cells [4]; FTS 75 μM", "value": "dramatic increase in apoptosis"}, {"measurement": "induction of apoptosis", "setting": "LTED cells [4]; FTS 20 and 50 μM", "value": "did not induce apoptosis"}]}]}
